Several values for one entry are separate records, joined by “and”; a condition that tells them apart may be missing. Equal values may be shown once.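 Briefly, cells in 96-well plates were exposed to five compound concentrations for 48 h, and endpoints were estimated by linear interpolation. GI50: concentration for 50% inhibition of growth. At the TGI there is no net growth.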
Legend:
Experiment in all cases: NCI anticancer screen, dose series, 48 h
786-0 renal = system: 786-0 renal
A498 renal = system: A498 renal
A549 NSCLC = system: A549 NSCLC
ACHN renal = system: ACHN renal
BT-549 breast = system: BT-549 breast
CAKI-1 renal = system: CAKI-1 renal
CCRF-CEM leukemia = system: CCRF-CEM leukemia
COLO 205 colon = system: COLO 205 colon
DU-145 prostate = system: DU-145 prostate
EKVX NSCLC = system: EKVX NSCLC
HCC-2998 colon = system: HCC-2998 colon
HCT-116 colon = system: HCT-116 colon
HCT-15 colon = system: HCT-15 colon
HL-60(TB) leukemia = system: HL-60(TB) leukemia
HOP-62 NSCLC = system: HOP-62 NSCLC
HOP-92 NSCLC = system: HOP-92 NSCLC
HS 578T breast = system: HS 578T breast
HT29 colon = system: HT29 colon
IGROV1 ovarian = system: IGROV1 ovarian
K-562 leukemia = system: K-562 leukemia
KM12 colon = system: KM12 colon
LOX IMVI melanoma = system: LOX IMVI melanoma
M14 melanoma = system: M14 melanoma
MALME-3M melanoma = system: MALME-3M melanoma
MCF7 breast = system: MCF7 breast
MDA-MB-231 breast = system: MDA-MB-231 breast
MDA-MB-435 = system: MDA-MB-435
MOLT-4 leukemia = system: MOLT-4 leukemia
NCI-H226 lung = system: NCI-H226 lung
NCI-H23 lung = system: NCI-H23 lung

`O=C(c1ccc(/C=C/c2n[nH]c3ccccc23)cc1)N1CCNCC1` was tested, and the GI50 (786-0 renal) was 9.53 µM and 7.98 µM, the TGI (786-0 renal) was > 10 µM and 23 µM and the GI50 (A498 renal) was 2 µM and 7.83 µM. For the same compound, the TGI (A498 renal) was 8.87 µM and 21.5 µM, the GI50 (A549 NSCLC) was 2.95 µM and 2.57 µM and the TGI (A549 NSCLC) was > 10 µM and 39.4 µM. For the same compound, the GI50 (ACHN renal) was > 10 µM and 4.05 µM, the TGI (ACHN renal) was > 10 µM and 25.3 µM and the GI50 (BT-549 breast) was 5.58 µM and 4.14 µM. The TGI (BT-549 breast) was > 10 µM and 13.6 µM, the GI50 (CAKI-1 renal) was 4.96 µM and 1.35 µM and the TGI (CAKI-1 renal) was > 10 µM and 9.11 µM. The GI50 (CCRF-CEM leukemia) was 6.03 µM and 10.4 µM, the TGI (CCRF-CEM leukemia) was > 10 µM and 75.8 µM and the GI50 (COLO 205 colon) was 3.96 µM and 0.598 µM. The TGI (COLO 205 colon) was > 10 µM and 5.9 µM, the GI50 (DU-145 prostate) was 5.76 µM and 4.15 µM and the TGI (DU-145 prostate) was > 10 µM and 27.5 µM. For the same compound, the GI50 (EKVX NSCLC) was > 10 µM and 8.5 µM, the TGI (EKVX NSCLC) was > 10 µM and 34.6 µM and the GI50 (HCC-2998 colon) was > 10 µM and 12.1 µM. For the same compound, the TGI (HCC-2998 colon) was > 10 µM and 34.1 µM, the GI50 (HCT-116 colon) was 1.5 µM and 2.02 µM and the TGI (HCT-116 colon) was 2.88 µM and 20.9 µM. For the same compound, the GI50 (HCT-15 colon) was 1.5 µM and 3.47 µM, the GI50 (HL-60(TB) leukemia) was 1.94 µM and 4.15 µM and the TGI (HL-60(TB) leukemia) was 4.45 µM and 22.3 µM. The GI50 (HOP-62 NSCLC) was > 10 µM and 3.63 µM, the TGI (HOP-62 NSCLC) was > 10 µM and 19.3 µM and the GI50 (HOP-92 NSCLC) was 2.71 µM and 1.89 µM. For the same compound, the TGI (HOP-92 NSCLC) was > 10 µM and 7.63 µM, the GI50 (HS 578T breast) was 1.93 µM and 4.22 µM and the TGI (HS 578T breast) was 7.36 µM and 31.7 µM. For the same compound, the GI50 (HT29 colon) was 2.04 µM and 2.44 µM, the TGI (HT29 colon) was 4.77 µM and 15.3 µM and the GI50 (IGROV1 ovarian) was 5.32 µM and 3.14 µM. The TGI (IGROV1 ovarian) was > 10 µM and 19.1 µM, the GI50 (K-562 leukemia) was 1.45 µM and 1.37 µM and the TGI (K-562 leukemia) was 3.58 µM and 21.5 µM. For the same compound, the TGI (KM12 colon) was > 10 µM and 5.35 µM, the GI50 (LOX IMVI melanoma) was 1.76 µM and 2.34 µM and the TGI (LOX IMVI melanoma) was 3.26 µM and 12.2 µM. The GI50 (M14 melanoma) was 1.66 µM and 3.75 µM, the TGI (M14 melanoma) was 3.22 µM and 16.9 µM and the GI50 (MALME-3M melanoma) was 1.52 µM and 1.16 µM. The TGI (MALME-3M melanoma) was 3.09 µM and 9.38 µM, the TGI (MCF7 breast) was 2.46 µM and 15.5 µM and the GI50 (MDA-MB-231 breast) was 6.04 µM and 3.62 µM. The TGI (MDA-MB-231 breast) was > 10 µM and 18 µM, the GI50 (MDA-MB-435) was 1.54 µM and 2.58 µM and the TGI (MDA-MB-435) was 2.9 µM and 15.5 µM. The GI50 (MOLT-4 leukemia) was 2.26 µM and 2.27 µM, the TGI (MOLT-4 leukemia) was 5.79 µM and 36.3 µM and the GI50 (NCI-H226 lung) was > 10 µM and 1.84 µM. The TGI (NCI-H226 lung) was > 10 µM and 8.66 µM and the GI50 (NCI-H23 lung) was > 10 µM and 2.55 µM.
